These results are taken from patent US20070231407A1, “Method of treating gallium-nitrate resistant tumors using gallium-containing compounds” (priority 2006, published 2007).

Broadly, the IC50 is the point on the concentration scale where inhibition reaches its midpoint.

The subject of one assay is CCRF-CEM cells. Nature of the assay: MTT cell growth assay, CCRF-CEM cells (GaN-sensitive). It counts as cell-based, human. As to conditions: for IC50: MTT assay, 72 h incubation, read-out: IC50, inhibition of T lymphoma CCRF-CEM cell growth; for Inhibition of CCRF-CEM cell growth (in words): increasing concentrations, 72 h, MTT, FIG. 2. As for the experimental part: CCRF-CEM cells were obtained from ATCC.
(§1) Mantle cell lymphoma (HBL-2 (Human B-cell lymphoma-derived cell line), Granta, JVM-2, NCEB-1, Z138C) and DoHH2 cell lines were obtained from the British Columbia Cancer Agency. p53 cell lines were obtained from the NCI. Gallium maltolate and gallium nitrate were obtained from Titan Pharmaceuticals Inc. (San Francisco, Calif.) and Genta Incorporated (Berkley Heights, N.J.), respectively. Cell proliferation was measured by MTT assay (Mosmann T. “Rapid colorimetric assay for cellular growth and survival: Application to proliferation and cytotoxicity assays”. J Immunol Methods 1983; 65:55-63, incorporated by reference here in its entirety). Caspase-3 activity was measured by ApoOne assay (Promega, Madison, Wis.). Assays for cellular ^59Fe-transferrin uptake and ^125I-transferrin binding were used as previously described in Chitambar, 1997.
(§2) CCRF-CEM cells were plated at a density of 2×10^5 cells/ml in microwell plates (100 μL cell suspension per well) in the presence of increasing concentrations of gallium maltolate or maltol (subsequently referred to as the additives). After 72 h of incubation, 10 μL MTT (3-(4,5-dimethlythiazol-2-yl)-2,5-diphenyltetrazolium bromide) was added to each well and the incubation continued for 4 h at 37° C. Cells were then solubilized by the addition of 100 μL of 0.4 N HCl in isopropanol to each well and the absorbance of each well was read at 570 nm using a microplate reader. The effect of the additives on cell proliferation was determined by comparing the absorbance from wells containing the additives with the absorbance from wells in which the additives were omitted (decreased absorbance signifies decreased cell proliferation). Cell growth was expressed as a percentage of control (cell growth in the absence of additives). Cell proliferation was assessed after 72 h of incubation with gallium maltolate or maltol.
Cell growth was determined by MTT assay as described in Example 1 above. Values shown are means +/−S.E. (n=4).
To determine the effect of GaM on the growth of gallium nitrate-resistant (GnR) and -sensitive (GnS) cells, cells were plated in microwell plates and incubated with GaM. Cellular proliferation was measured by MTT assay after 72 h incubation with GaM. Values shown are means +/−S.E. (n=4).
In general terms: Tetrazolium dyes change colour on reduction, which living cells bring about.

For assay [1], the system named is GaN-resistant CCRF-CEM cells. Description: MTT cell growth assay, gallium nitrate-resistant (GnR) CCRF-CEM cells. It counts as cell-based, human. As for the experimental part:
(§3) Mantle cell lymphoma (HBL-2 (Human B-cell lymphoma-derived cell line), Granta, JVM-2, NCEB-1, Z138C) and DoHH2 cell lines were obtained from the British Columbia Cancer Agency. p53 cell lines were obtained from the NCI. […] Cell proliferation was measured by MTT assay (Mosmann T. “Rapid colorimetric assay for cellular growth and survival: Application to proliferation and cytotoxicity assays”. J Immunol Methods 1983; 65:55-63, incorporated by reference here in its entirety). Caspase-3 activity was measured by ApoOne assay (Promega, Madison, Wis.). Assays for cellular ^59Fe-transferrin uptake and ^125I-transferrin binding were used as previously described in Chitambar, 1997.
as §2, with “After 72 h of incubation, 10 μL MTT (3-(4,5-dimethlythiazol-2-yl)-2,5-diphenyltetrazolium bromide) was added to each well and the incubation continued for 4 h at 37° C.” left out, “Cell growth was expressed as a percentage of control (cell growth in the absence of additives). Cell proliferation was assessed after 72 h of incubation with gallium maltolate or maltol.” left out

Assay [2] deals with MCL cell lines HBL2, JVM2, Z138C, and Granta. Nature of the assay: MTT cell growth assay, mantle cell lymphoma (MCL) cell lines. It counts as cell-based, human. Conditions: range over the four cell lines, 72 h, read-out: IC50, growth inhibition of MCL cell lines HBL2, JVM2, Z138C, and Granta. As for the experimental part: Mantle cell lymphoma (HBL-2 (Human B-cell lymphoma-derived cell line), Granta, JVM-2, NCEB-1, Z138C) and DoHH2 cell lines were obtained from the British Columbia Cancer Agency. p53 cell lines were obtained from the NCI. Gallium maltolate and gallium nitrate were obtained from Titan Pharmaceuticals Inc. (San Francisco, Calif.) and Genta Incorporated (Berkley Heights, N.J.), respectively. Cell proliferation was measured by MTT assay (Mosmann T. “Rapid colorimetric assay for cellular growth and survival: Application to proliferation and cytotoxicity assays”. J Immunol Methods 1983; 65:55-63, incorporated by reference here in its entirety). Caspase-3 activity was measured by ApoOne assay (Promega, Madison, Wis.). […]
as §2, with “After 72 h of incubation, 10 μL MTT (3-(4,5-dimethlythiazol-2-yl)-2,5-diphenyltetrazolium bromide) was added to each well and the incubation continued for 4 h at 37° C.” left out, “Cell growth was expressed as a percentage of control (cell growth in the absence of additives). Cell proliferation was assessed after 72 h of incubation with gallium maltolate or maltol.” left out

The subject of the next assay is p53 wt TK-6 cells. Description: MTT cell growth assay, p53 wt TK-6 cells. It counts as cell-based, human. As to conditions: 72 h. As for the experimental part: as §3
as §2, with “After 72 h of incubation, 10 μL MTT (3-(4,5-dimethlythiazol-2-yl)-2,5-diphenyltetrazolium bromide) was added to each well and the incubation continued for 4 h at 37° C.” left out, “Cell growth was expressed as a percentage of control (cell growth in the absence of additives). Cell proliferation was assessed after 72 h of incubation with gallium maltolate or maltol.” left out

Another assay relates to p53 null HN-32 cells. Description: MTT cell growth assay, p53 null HN-32 cells. It counts as cell-based, human. As to conditions: 72 h. As for the experimental part:
as §3
as §2, with “After 72 h of incubation, 10 μL MTT (3-(4,5-dimethlythiazol-2-yl)-2,5-diphenyltetrazolium bromide) was added to each well and the incubation continued for 4 h at 37° C.” left out, “Cell growth was expressed as a percentage of control (cell growth in the absence of additives). Cell proliferation was assessed after 72 h of incubation with gallium maltolate or maltol.” left out

Another assay deals with p53 mutant WTK-1 cells. Description: MTT cell growth assay, p53 mutant WTK-1 cells. It counts as cell-based, human. Conditions: 72 h. As for the experimental part:
as §3
as §2, with “After 72 h of incubation, 10 μL MTT (3-(4,5-dimethlythiazol-2-yl)-2,5-diphenyltetrazolium bromide) was added to each well and the incubation continued for 4 h at 37° C.” left out, “Cell growth was expressed as a percentage of control (cell growth in the absence of additives). Cell proliferation was assessed after 72 h of incubation with gallium maltolate or maltol.” left out

Assay [3] relates to HBL-2 cells. Description: MTT cell proliferation assay, mantle cell lymphoma HBL-2 cells. It counts as cell-based, human. As to conditions: 72 h, FIG. 3. As for the experimental part:
Mantle cell lymphoma (HBL-2 (Human B-cell lymphoma-derived cell line), Granta, JVM-2, NCEB-1, Z138C) and DoHH2 cell lines were obtained from the British Columbia Cancer Agency. p53 cell lines were obtained from the NCI. […] (San Francisco, Calif.) and Genta Incorporated (Berkley Heights, N.J.), respectively. Cell proliferation was measured by MTT assay (Mosmann T. “Rapid colorimetric assay for cellular growth and survival: Application to proliferation and cytotoxicity assays”. J Immunol Methods 1983; 65:55-63, incorporated by reference here in its entirety). Caspase-3 activity was measured by ApoOne assay (Promega, Madison, Wis.). Assays for cellular ^59Fe-transferrin uptake and ^125I-transferrin binding were used as previously described in Chitambar, 1997. […] Cells were then solubilized by the addition of 100 μL 0.4 N HCl in isopropanol to each well and the absorbance of each well was read at 570 nm using a spectrophotometer. Cell proliferation was measured after a 72 h incubation period. The effect of the additives on cell proliferation was determined by comparing the absorbance from wells with the additives with the absorbance from wells in which the additives were omitted (decreased absorbance signifies decreased cell proliferation). Cell growth was expressed as a percentage of control (cell growth in the absence of additives).

Assay [4] deals with caspase-3. Nature of the assay: Caspase-3 activation (apo-One assay) in HBL-2 cells. It counts as cell-based, human. Conditions: for Caspase-3 activity in exposed cells, dose dependence: see FIG. 4. As for the experimental part:
as §1
After incubation with these compounds, the cells were analyzed for apoptosis using the commercially available apo-One™ assay that measures caspase-3 activation. Data points are the means and S.E. of an experiment performed in triplicate.

Assay [5] has as its system caspase-3. Description: Caspase-3 activity (apo-One assay) in GnR CCRF-CEM cells. It counts as cell-based, human. As to conditions: 24 h incubation, FIG. 5D. As for the experimental part: as §1
After the incubation period, caspase-3 activity was measured by apo-One™ assay.

Assay [6] has as its system HBL-2 cells. Description: Cellular 59Fe-transferrin (iron) uptake by HBL-2 cells. It counts as cell-based, human. Conditions: 24 h, increasing concentrations of GaM, FIG. 7. As for the experimental part:
as §1
HBL-2 cells were incubated in complete medium in the presence of increasing concentrations of GaM. Radioiron (^59Fe-transferrin) was added to cells at the start of the incubation. After 24 h, cells were harvested, washed with phosphate buffered saline to remove unincorporated ^59Fe and centrifuged to pellet the cells. ^59Fe radioactivity in the cell pellet was counted in a gamma counter. The results showing that the amount of radioiron taken up by cells decreases with increasing concentrations of GaM are depicted in FIG. 7.

The subject of assay [7] is transferrin (Tf) receptor. Nature of the assay: 125I-transferrin binding assay, cell surface transferrin receptor density in HBL-2 cells. It counts as cell-based, human. Conditions: FIG. 8. As for the experimental part: as §1
To determine the mechanism by which GaM acts on cells, cellular transferrin receptor expression was evaluated in HBL-2 cells. The effect of GaM on cellular transferrin receptor expression was determined using a ^125I-transferrin (Tf) binding assay that measures the binding of the ligand Tf to its receptor (TfR). HBL-2 cells were incubated with increasing concentrations of GaM for 24 and 48 h and then analyzed for Tf binding using an established method. The amount of radioactive Tf bound to cellular TfR was calculated using Scatchard analysis.

A further assay has as its system lymphoma cell lines. Description: Annexin V staining of cells exposed to gallium compounds. It counts as cell-based. As to conditions: cells exposed to GaN or GaM.

Each structure is given as a SMILES string.

As to `Cc1occc(=O)c1[O-].Cc1occc(=O)c1[O-].Cc1occc(=O)c1[O-].[Ga+3]` [GaM, gallium maltolate], the IC50 was 29 µM with CCRF-CEM cells; 70 µM in assay [1] (MTT assay, 72 h incubation, read-out: IC50, growth inhibition of GaN-resistant cells); 15 to 30 µM in assay [2]; 18 µM with p53 wt TK-6 cells; 45 µM in the assay on p53 null HN-32 cells; 45 µM in the assay on p53 mutant WTK-1 cells. Moreover, the “Inhibition of CCRF-CEM cell growth (in words)” value in the assay on CCRF-CEM cells was “inhibited”. Also, the “Proliferation of GnR cells resistant to GaN (in words)” value in assay [1] (FIG. 5) was “inhibits proliferation”. In addition, the “Growth of p53 wt TK-6 cells (in words)” value in the assay on p53 wt TK-6 cells (FIG. 6) was “inhibited to a similar extent”. In addition, the “Growth of p53 null HN-32 cells (in words)” value in the assay on p53 null HN-32 cells (FIG. 6) was “inhibited to a similar extent”. The “Growth of p53 mutant WTK-1 cells (in words)” value in the assay on p53 mutant WTK-1 cells (FIG. 6) is given as “inhibited to a similar extent”. Also, the “Inhibition of HBL-2 cell proliferation, GaM compared with GaN (in words)” value with HBL-2 cells [3] is given as “much lower concentrations of gallium were required to inhibit cell proliferation”. Also, the “Caspase-3 activation in HBL-2 cells” value with caspase-3 [4] (48 h incubation, similar concentrations of GaM and GaN, FIG. 4) is “activated”. The “Caspase-3 activity in exposed cells, dose dependence” value with caspase-3 [4] is listed as “dose-dependent increase”. Besides, the “Caspase-3 activation in GnR cells” value with caspase-3 [5] was “activates caspase-3”. Further, the “Amount of radioiron (59Fe) taken up by cells” value in the assay on HBL-2 cells [6] is recorded as “decreases”. Moreover, the “Number of TfRs on the cell surface” value in assay [7] (24 h, 25 and 50 μM GaM) was “increase the number of TfRs”; in [7] (48 h, 25 μM GaM) it was “increases TfR number”. Further, in the assay with lymphoma cell lines, the “Annexin V staining” value is listed as “increase”.

For `O=[N+]([O-])[O-].O=[N+]([O-])[O-].O=[N+]([O-])[O-].[Ga+3]` [GaN, gallium nitrate, reference compound], the figures for the IC50 (in the assay with CCRF-CEM cells; in [2]) were 103 µM and 45 to 400 µM, respectively. The “Caspase-3 activity in exposed cells, dose dependence” value with caspase-3 [4] is recorded as “dose-dependent increase”. Also, the “Caspase-3 activation in GnR cells” value in the assay with caspase-3 [5] is “not”. The “Annexin V staining” value with lymphoma cell lines is “increase”.

Take `Cc1occc(=O)c1O` [Maltol, maltol, reference compound]: in the assay on CCRF-CEM cells, the “Inhibition of CCRF-CEM cell growth (in words)” value is “did not inhibit cell growth”.
